“And” between values parts separate entries of the source, which are not always exact repeats. Equal entries are not always repeated. Structures can show the parent of a compound that is named as a salt.
Tested on: HO-1
Assay: not given
Conditions: representative inhibitor, printed in picture of Figure 1; cited from earlier work

SMILES	IC50 [nM]
FC(F)(F)c1ccc(SC[C@@H]2CO[C@@](CCc3ccc(Cl)cc3)(Cn3ccnc3)O2)nc1 [QC-80]	2100

Molecular target: T1, HO-1 (Rattus norvegicus, UniProt P06762)
T1 construct: Rat spleen microsomal fractions were chosen to isolate HO-1 in its most native form; from tissue; host or cells: rat spleen (male Sprague-Dawley), 100,000 g microsomal pellet
T1 sequence (P06762 1-289): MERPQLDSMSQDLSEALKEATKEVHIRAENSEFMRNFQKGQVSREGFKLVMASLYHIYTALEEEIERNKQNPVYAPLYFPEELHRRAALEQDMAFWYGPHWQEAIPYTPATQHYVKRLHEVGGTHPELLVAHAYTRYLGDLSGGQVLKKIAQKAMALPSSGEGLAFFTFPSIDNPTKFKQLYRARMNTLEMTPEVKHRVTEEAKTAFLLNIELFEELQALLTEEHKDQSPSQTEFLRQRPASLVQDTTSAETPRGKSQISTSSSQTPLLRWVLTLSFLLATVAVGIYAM
Assay: HO-1 enzymatic activity in the microsomal fraction of rat spleen (bilirubin formation)
Assay type: biochemical
Conditions: rat spleen microsomal fraction; mean ± SD of triplicate experiments
Method: The inhibitory potency of the novel compounds was evaluated reproducing in vitro the HO-1 catalytic cycle. Rat spleen microsomal fractions were chosen to isolate HO-1 in its most native form; indeed, it is well known that in basal conditions, HO-1 is highly expressed in spleen tissues. […] Among the three catabolites, bilirubin concentrations can easily be monitored spectrophotometrically; the lowest is the absorbance detected with the assay, and the highest is the potency of the putative inhibitor. Results obtained from the in vitro enzymatic assay are reported in Table 1, using Azalanstat as the reference compound.
Rat spleen microsomal fraction obtained by differential centrifugation, according to Ryter et al., was used as source of the HO-1 protein. As reported in the literature, HO-1 is abundant in the rat spleen. We chose this source because it represents the most native (i.e., closest to in vivo) form of HO-1. The experiments reported in the present paper complied with current Italian law and met the guidelines of the Institutional Animal Care and Use Committee of the Ministry of Health (Directorate-General for Animal Health and Veterinary Medicines, Italy) “Dosing of enzymatic activities in rat microsomes” (2018–2022), project code 02769.N.VLY. We used male albino rats of strain Sprague–Dawley (150 g body weight and age 45 d) to obtain spleen microsomal fraction. Rats had free access to water and were kept at room temperature with a natural photoperiod (12 h light–12 h dark cycle). Each rat was sacrificed, and their spleens were pooled and then homogenized in 50 mM Tris buffer, pH 7.4, containing 0.25 M sucrose, using a Potter–Elvehjem homogenizing system with a Teflon pestle. Rat spleen homogenate was centrifuged at 10,000× g for 20 min at 4 °C, and the supernatant was centrifuged at 100,000× g for 60 min at 4 °C. The 100,000 g pellet (microsomes) was resuspended in 100 mM potassium phosphate buffer, pH 7.8, containing MgCl2 2 mM. After measuring its protein concentration, the microsomal fraction was aliquoted and stored at −80 °C for up to 2 months.
Liver tissue was used to obtain biliverdin reductase. Liver tissue was homogenized on ice in 3 volumes of a solution 1.15% KCl w/v and Tris buffer 20 mM, pH 7.8. Rat liver homogenate was centrifuged at 10,000× g for 20 min at 4 °C, and the supernatant was centrifuged at 100,000× g for 1 h at 4 °C. The 100,000 g supernatant was aliquoted and stored at −80 °C after its protein concentration was measured.
Determination of HO-1 activity has been performed by measuring the bilirubin formation using the difference in absorbance at 464–530 nm as described by Ryter et al.. The incubation mixture contained the following in a final volume of 500 µL: 20 mM Tris–HCl, pH 7.4, (1 mg/mL) microsomal extract, 0.5–2 mg/mL biliverdin reductase, 1 mM NADPH, 2 mM glucose 6-phosphate (G6P), 1 U G6P dehydrogenase, 25 µM hemin, and 10 µL of DMSO (or the same volume of DMSO solution of test compounds to a final concentration of 100, 10, and 1 µM). Enzymatic reactions were carried out in the dark for 1 h at 37 °C in a circulating water bath. Then, 500 µL of chloroform was used to stop the reaction. The amount of bilirubin formed was measured in the chloroform phase, with a double-beam spectrophotometer as OD464–530 nm (extinction coefficient, 40 mM/cm for bilirubin). The enzymatic activity was defined as Units (one Unit is the amount of enzyme catalyzing the formation of 1 nmol of bilirubin/mg protein/h).

SMILES	IC50	HO-1 IC50
O=C(NCCCn1ccnc1)c1cc2cc(OCc3ccccc3)ccc2[nH]1 [Compound 1, N-(3-(1H-Imidazol-1-yl)propyl)-5-(benzyloxy)-1H-indole-2-carboxamide]	89.6 ± 6.1 µM	–
Cc1ccc2c(c1)cc(C(=O)NCCCn1ccnc1)n2Cc1ccccc1 [Compound 8a, N-(3-(1H-Imidazol-1-yl)propyl)-1-benzyl-5-methyl-1H-indole-2-carboxamide]	2060 ± 412 µM	–
COc1ccc2c(c1)cc(C(=O)NCCCn1ccnc1)n2Cc1ccccc1 [Compound 8b, N-(3-(1H-Imidazol-1-yl)propyl)-1-benzyl-5-methoxy-1H-indole-2-carboxamide]	> 100 µM and 349 µM	–
COc1cc2cc(C(=O)NCCCn3ccnc3)n(Cc3ccccc3)c2cc1OC [Compound 8c, N-(3-(1H-Imidazol-1-yl)propyl)-1-benzyl-5,6-dimethoxy-1H-indole-2-carboxamide]	81 ± 4.65 µM	–

Now from value to molecule:

IC50	HO-1 IC50	SMILES
367 ± 34.5 µM	–	Cc1ccc2c(c1)cc(C(=O)NCCCn1ccnc1)n2C [Compound 4a, N-(3-(1H-Imidazol-1-yl)propyl)-1,5-dimethyl-1H-indole-2-carboxamide]
> 100 µM and 113 µM	–	COc1ccc2c(c1)cc(C(=O)NCCCn1ccnc1)n2C [Compound 4b, N-(3-(1H-Imidazol-1-yl)propyl)-5-methoxy-1-methyl-1H-indole-2-carboxamide]
55.5 ± 3.82 µM	–	COc1cc2cc(C(=O)NCCCn3ccnc3)n(C)c2cc1OC [Compound 4c, N-(3-(1H-Imidazol-1-yl)propyl)-5,6-dimethoxy-1-methyl-1H-indole-2-carboxamide]
1.03 ± 0.13 µM	low micromolar range	Cn1c(C(=O)NCCCn2ccnc2)cc2cc(OCc3ccccc3)ccc21 [Compound 4d, N-(3-(1H-Imidazol-1-yl)propyl)-5-(benzyloxy)-1-methyl-1H-indole-2-carboxamide]

Same assay, conditions: versus compound 1

fold more potent than parent compound 1 (HO-1 IC50) [fold]	SMILES
87	Cn1c(C(=O)NCCCn2ccnc2)cc2cc(OCc3ccccc3)ccc21 [Compound 4d, N-(3-(1H-Imidazol-1-yl)propyl)-5-(benzyloxy)-1-methyl-1H-indole-2-carboxamide]

Tested on: HO-2
Assay: not given
Conditions: representative inhibitor, printed in picture of Figure 1; cited from earlier work

SMILES	IC50 [µM]
FC(F)(F)c1ccc(SC[C@@H]2CO[C@@](CCc3ccc(Cl)cc3)(Cn3ccnc3)O2)nc1 [QC-80]	16

Tested on: not given
Assay: not given
Conditions: not given

SMILES	melting point [°C]
Cc1ccc2c(c1)cc(C(=O)NCCCn1ccnc1)n2Cc1ccccc1 (as salt: hydrochloride) [Compound 8a, N-(3-(1H-Imidazol-1-yl)propyl)-1-benzyl-5-methyl-1H-indole-2-carboxamide]	178 to 179
COc1ccc2c(c1)cc(C(=O)NCCCn1ccnc1)n2Cc1ccccc1 (as salt: hydrochloride) [Compound 8b, N-(3-(1H-Imidazol-1-yl)propyl)-1-benzyl-5-methoxy-1H-indole-2-carboxamide]	151 to 152
COc1cc2cc(C(=O)NCCCn3ccnc3)n(Cc3ccccc3)c2cc1OC (as salt: hydrochloride) [Compound 8c, N-(3-(1H-Imidazol-1-yl)propyl)-1-benzyl-5,6-dimethoxy-1H-indole-2-carboxamide]	110 to 111
O=C(NCCCn1ccnc1)c1cc2cc(OCc3ccccc3)ccc2[nH]1 [Compound 1, N-(3-(1H-Imidazol-1-yl)propyl)-5-(benzyloxy)-1H-indole-2-carboxamide]	204 to 206

Results, then the molecule that gave them:

melting point [°C]	SMILES
102 to 103	Cc1ccc2c(c1)cc(C(=O)NCCCn1ccnc1)n2C (as salt: hydrochloride) [Compound 4a, N-(3-(1H-Imidazol-1-yl)propyl)-1,5-dimethyl-1H-indole-2-carboxamide]
121 to 122	COc1ccc2c(c1)cc(C(=O)NCCCn1ccnc1)n2C (as salt: hydrochloride) [Compound 4b, N-(3-(1H-Imidazol-1-yl)propyl)-5-methoxy-1-methyl-1H-indole-2-carboxamide]
146 to 147	COc1cc2cc(C(=O)NCCCn3ccnc3)n(C)c2cc1OC (as salt: hydrochloride) [Compound 4c, N-(3-(1H-Imidazol-1-yl)propyl)-5,6-dimethoxy-1-methyl-1H-indole-2-carboxamide]
174 to 175	Cn1c(C(=O)NCCCn2ccnc2)cc2cc(OCc3ccccc3)ccc21 (as salt: hydrochloride) [Compound 4d, N-(3-(1H-Imidazol-1-yl)propyl)-5-(benzyloxy)-1-methyl-1H-indole-2-carboxamide]

— paper PMC8704944, “From Far West to East: Joining the Molecular Architecture of Imidazole-like Ligands in HO-1 Complexes” (Pharmaceuticals, 2021)
